Like-named read-outs stand apart in the source and are kept apart here.
What was measured:
Male Wistar rats [1] = test: Object recognition task model; format: in vivo; conditions: p.o.; for Exploration time Familiar object / Exploration time Novel object: mean ± S.E.M, choice trial 24 hours after T1
Description: Object Recognition Task Model
(§1) The cognition enhancing properties of compounds of this invention were estimated by using this model.
(§2) Male Wistar rats (8-10 weeks old) were used as experimental animals. Four animals were housed in each cage. Animals were kept on 20% food deprivation from a day prior to experimentation. Water was provided ad libitum throughout the experiment. Animals were maintained on a 12 hours light/dark cycle in temperature and humidity controlled room. The experiment was carried out in an open field made up of acrylic. Rats were habituated to individual arenas (open field) for 1 hour in the absence of any objects on day 1.
One group of 12 rats received vehicle and another set of animals received compound of the formula (I), before the familiar (T1) and choice (T2) trials. During the familiarization phase, (T1), the rats were placed individually in the arena for 3 minutes, in which two identical objects (a1 and a2) were positioned 10 cm from the wall. 24 hours after T1, trial for long-term memory test was performed. The same rats were placed in the same arena as they were placed in T1 trial. During the choice phase (T2) rats were allowed to explore the arena for 3 minutes in presence of a copy of familiar object (a3) and one novel object (b). During the T1 and T2 trial, explorations of each object (defined as sniffing, licking, chewing or having moving vibrissae whilst directing the nose towards the object at a distance of less than 1 cm) were recorded using stopwatch. • T1 is the total time spent exploring the familiar objects (a1+a2). • T2 is the total time spent exploring the familiar object and novel object (a3+b). • Discriminative index=Time spent with novel object/(time spent with novel and familiar object).
The object recognition test was performed as described by Behavioural Brain Research, 1988, 31, 47-59 and the results are provided in table 5.

Male Wistar rats [2] = test: Object recognition task model - scopolamine challenge; format: in vivo; conditions: p.o.; for Exploration time Familiar object / Exploration time Novel object: mean ± S.E.M, choice trial 3 minutes after T1
Description: Object Recognition Task Model—Scopolamine challenge
as §1, §2
Rats received vehicle or vehicle and scopolamine or compound of the formula (I) and scopolamine, before the familiar (T1). During the familiarization phase, (T1), the rats were placed individually in the arena for 3 minutes, in which two identical objects (a1 and a2) were positioned 10 cm from the wall. 3 minutes after T1, trial for memory test was performed. The same rats were placed in the same arena as they were placed in T1 trial. During the choice phase (T2) rats were allowed to explore the arena for 3 minutes in presence of a copy of familiar object (a3) and one novel object (b). During the T1 and T2 trial, explorations of each object (defined as sniffing, licking, chewing or having moving vibrissae whilst directing the nose towards the object at a distance of less than 1 cm) were recorded using stopwatch. • T1 is the total time spent exploring the familiar objects (a1+a2). • T2 is the total time spent exploring the familiar object and novel object (a3+b). • Discriminative index=Time spent with novel object/(time spent with novel and familiar object).

sAPPα = test: Estimation of cortical sAPPα levels in rat brain (ELISA); format: in vivo, Male Wistar rats; conditions: i.p.; for sAPPα levels: cortex, 60 minutes after treatment, mean ± SEM (n = 5/group); for Inference: cortical sAPPα levels, 1.0-10.0 mg/kg
Description: Estimation of Cortical sAPPα Levels in Rat Brain
Male Wistar rats (250±45 grams) were randomly divided into different treatment groups (n=5 per group). Control group of rats were administered with intraperitoneal (i.p.) injection of vehicle (99.75% of 0.25% hydroxyethylcellulose HHX+0.25% tween 80 for examples 8 and 22; 5% Pharmasolve+45% propylene glycol+50% polyethylene glycol-400 for example 1). Rats in treatment groups were allocated to one dose of test compound and administered with a single intraperitoneal injection of test compound (dose volume of 2 mL/kg). Rats were sacrificed by cervical dislocation at 60 minutes after treatment. Brains were quickly isolated and the cortex was dissected out at −20° C. The cortex was immediately kept on a dry ice and weighed before being stored at −80° C. until quantification of sAPPα using Enzyme-linked immunosorbent assay (ELISA).
• 1. Protease inhibitor cocktail tablets (complete mini, Make-Roche; 1 tablet for 8 mL) were added to the Tris Buffer Saline (TBS) prior to using the buffer for tissue processing. • 2. Cortical tissues were thawed and homogenized in five volumes of TBS and the solution was centrifuged at 15,000 rpm at 4° C. for 90 minutes. • 3. The supernatant was discarded and homogenized in five volumes of TBS. Samples were centrifuged at 15,000 rpm at 4° C. for 30 minutes. • 4. Supernatant was discarded and precipitate was sonicated in ten volumes of 50 mM Tris buffer (pH: 7.6) containing 6 M of Guanidine-HCl. Sonication was repeated four times with duration of five seconds every time. • 5. Resulting mixture was incubated at the room temperature for 30 minutes and centrifuged at 15,000 rpm at 4° C. for 30 minutes. Supernatant was diluted 100 times with EIA buffer prior to addition in the pre-coated ELISA plates. Measurement of sAPPα by ELISA Kit:
To investigate the role of an acute treatment of test compound on sAPPα levels, the expression of this protein was measured in samples obtained from brain homogenates of treated and untreated rats by employing ELISA assay. The entire procedure was followed as described in the ELISA kit manual (Mouse/Rat sAPPα (highly sensitive) assay kit, Catalog Number: JP27419, Immuno-Biological Laboratories Co. Ltd, Hamburg, Germany).
Statistical analyses were performed using the Graph Pad Prism (Version 4). Results are expressed as Mean±SEM levels of sAPPα expressed as percentage of control values obtained from rats treated with vehicle. Statistical significance after treatment was assessed using One-Way ANOVA followed by Dunnett's post test and the significance level was set below p value less than 0.05 and the results are tabulated in table 7.

[3] = molecular target: human Muscarinic M1 receptor (Homo sapiens (Human), UniProt P11229); test: Allosteric potency EC50 for muscarinic M1 receptor (CHO cells, pCRE-Luc reporter); format: cell-based; conditions: luciferase activity, 4 hours
Description: Determination of Allosteric Potency EC50 Values for Muscarinic M1 Receptor:
A stable CHO cell line expressing recombinant human Muscarinic M1 receptor and pCRE-Luc reporter system was used for cell-based assay. The assay offers a non-radioactive based approach to determine binding of a compound to GPCRs. In this specific assay, the level of intracellular cyclic AMP which is modulated by activation or inhibition of the receptor is measured. The recombinant cells harbor luciferase reporter gene under the control of cAMP response element.
The above cells were grown in 96 well clear bottom white plates in Hams F12 medium containing 10% fetal bovine serum (FBS). Prior to the addition of compounds or standard agonist, cells were serum starved overnight. Increasing concentrations of test compounds were added along with EC20 of acetylcholine in OptiMEM medium to the cells. The incubation was continued at 37° C. in CO2 incubator for 4 hours. Medium was removed and cells were washed with phosphate buffered saline. The cells were lysed and luciferase activity was measured in a Luminometer. Luminescence units were plotted against the compound concentrations using Graphpad software. EC50 values of the compounds were defined as the concentration required in stimulating the luciferase activity by 50% in presence of EC20 of acetylcholine and the results are provided in table 1.

[4] = in presence of EC20 of acetylcholine, read-out: hM1 PAM EC50

Structure (SMILES)	Inference (Male Wistar rats [2]; 1 mg/kg)	Exploration time Familiar object (Male Wistar rats [2]; 1 mg/kg)	Exploration time Novel object (Male Wistar rats [2]; 1 mg/kg)	sAPPα levels (sAPPα; 1.0 mg/kg)	sAPPα levels (sAPPα; 3.0 mg/kg)	sAPPα levels (sAPPα; 10.0 mg/kg)	Inference (sAPPα)	Inference (Male Wistar rats [1]; 0.3 mg/kg)	Exploration time Familiar object (Male Wistar rats [1]; 0.3 mg/kg)	Exploration time Novel object (Male Wistar rats [1]; 0.3 mg/kg)	Inference (Male Wistar rats [2]; 0.3 mg/kg)	Exploration time Familiar object (Male Wistar rats [2]; 0.3 mg/kg)	Exploration time Novel object (Male Wistar rats [2]; 0.3 mg/kg)	EC50 [3, 4]	Inference (Male Wistar rats [1]; 1 mg/kg)	Exploration time Familiar object (Male Wistar rats [1]; 1 mg/kg)	Exploration time Novel object (Male Wistar rats [1]; 1 mg/kg)	other results
Cl.O=C(N[C@H]1CCNC[C@H]1F)c1cn(Cc2ccnc(F)c2)c2c(F)ccc(F)c12 (single isomer, unassigned; isomer-i) [Example 22, Cis-N-(3-Fluoropiperidin-4-yl)-1-(2-fluoropyridin-4-ylmethyl)-4,7-difluoro-1H-indole-3-carboxamide hydrochloride (Isomer-I)]	Active	21.34 ± 3.65 s	29.70 ± 1.72 s	143 ± 14 % of vehicle	164 ± 12 % of vehicle	176 ± 10 % of vehicle	Active	–	–	–	–	–	–	–	–	–	–	Inference (Male Wistar rats [1]; 3 mg/kg): Active; Exploration time Familiar object (Male Wistar rats [1]; 3 mg/kg): 8.21 ± 0.70 s; Exploration time Novel object (Male Wistar rats [1]; 3 mg/kg): 15.72 ± 2.25 s; EC50 ([3]; hM1 PAM EC50, in presence of EC20 of acetylcholine): 1490 nM
Cn1cc(Cn2cc(C(=O)N[C@H]3CCCC[C@@H]3O)c3c(F)cccc32)cn1 [Example 1, N-[(1S,2S)-2-Hydroxycyclohexyl]-1-(1-methyl-1H-pyrazol-4-ylmethyl)-4-fluoro-1H-indole-3-carboxamide]	–	–	–	155 ± 6 % of vehicle	153 ± 7 % of vehicle	142 ± 6 % of vehicle	Active	Active	11.31 ± 1.07 s	28.92 ± 3.54 s	Active	7.54 ± 1.93 s	13.07 ± 1.79 s	1260 nM	–	–	–	–
O=C(N[C@H]1CCCC[C@@H]1O)c1cn(Cc2ccnc(Cl)c2)c2cccc(F)c12 [Example 2, N-[(1S,2S)-2-Hydroxycyclohexyl]-1-(2-chloropyridin-4-ylmethyl)-4-fluoro-1H-indole-3-carboxamide]	–	–	–	–	–	–	–	–	–	–	Active	14.29 ± 1.92 s	20.93 ± 2.89 s	681 nM	Active	9.06 ± 1.75 s	15.09 ± 2.19 s	–
Cn1cc(Cn2cc(C(=O)N[C@H]3CCCC[C@@H]3O)c3c(F)ccc(F)c32)cn1 [Example 5, N-[(1S,2S)-2-Hydroxycyclohexyl]-1-(1-methyl-1H-pyrazol-4-ylmethyl)-4,7-difluoro-1H-indole-3-carboxamide]	Active	13.61 ± 1.79 s	25.72 ± 3.67 s	–	–	–	–	Active	11.00 ± 0.81 s	19.64 ± 1.74 s	–	–	–	–	–	–	–	–
O=C(N[C@H]1CCCC[C@@H]1O)c1cn(Cc2ccnc(F)c2)c2cccc(F)c12 [Example 7, N-[(1S,2S)-2-Hydroxycyclohexyl]-1-(2-fluoropyridin-4-ylmethyl)-4-fluoro-1H-indole-3-carboxamide]	–	–	–	–	–	–	–	–	–	–	–	–	–	1360 nM	Active	9.16 ± 0.83 s	19.56 ± 1.96 s	–
O=C(N[C@H]1CCCC[C@@H]1O)c1cn(Cc2ccnc(F)c2)c2c(F)ccc(F)c12 [Example 8, N-[(1S,2S)-2-Hydroxycyclohexyl]-1-(2-fluoropyridin-4-ylmethyl)-4,7-difluoro-1H-indole-3-carboxamide]	–	–	–	120 ± 17 % of vehicle	137 ± 14 % of vehicle	173 ± 10 % of vehicle	Active	Active	7.59 ± 1.02 s	14.36 ± 1.56 s	–	–	–	192 nM	–	–	–	–

— patent publication US10294217B2, “Fluoroindole derivatives as muscarinic M1 receptor positive allosteric modulators” (Suven Life Sciences Limited, priority 2015, dated 2019)
